# Data: ChEMBL document CHEMBL1275533, “In vitro antibacterial activity of vertilmicin and its susceptibility to modifications by the recombinant AAC6'-APH2'' enzyme” (2008)
# Active and inactive are the calls of the source. No cut-off for these calls is given here.
# Assays:
# [1] = system: Acinetobacter calcoaceticus; experiment: Antibacterial activity against non-gentamicin-resistant Acinetobacter calcoaceticus clinical isolate after 18 hrs by agar dilution method; assay type: functional
# [2] = system: Haemophilus parainfluenzae; experiment: Antibacterial activity against non-gentamicin-resistant Haemophilus parainfluenzae clinical isolate assessed as susceptible isolates after 18 hrs by agar dilution method; assay type: functional, organism-based
# Serratia marcescens [3] = experiment: Antibacterial activity against gentamicin-resistant Serratia marcescens clinical isolate assessed as susceptible isolates after 18 hrs by agar dilution method; assay type: functional
# Enterococcus faecalis = experiment: Antibacterial activity against gentamicin-resistant Enterococcus faecalis clinical isolate assessed as susceptible isolates after 18 hrs by agar dilution method; assay type: functional, organism-based
# Pseudomonas aeruginosa [4] = experiment: Antibacterial activity against non-gentamicin-resistant Pseudomonas aeruginosa clinical isolate after 18 hrs by agar dilution method; assay type: functional
# Providencia rettgeri [5] = experiment: Antibacterial activity against non-gentamicin-resistant Proteus rettgeri clinical isolate after 18 hrs by agar dilution method; assay type: functional
# Klebsiella pneumoniae [6] = experiment: Antibacterial activity against non-gentamicin-resistant Klebsiella pneumoniae clinical isolate assessed as susceptible isolates after 18 hrs by agar dilution method; assay type: functional
# Enterobacter cloacae [7] = experiment: Antibacterial activity against gentamicin-resistant Enterobacter cloacae clinical isolate after 18 hrs by agar dilution method; assay type: functional
# Klebsiella aerogenes [8] = experiment: Antibacterial activity against gentamicin-resistant Enterobacter aerogenes clinical isolate after 18 hrs by agar dilution method; assay type: functional
# Klebsiella pneumoniae [9] = experiment: Antibacterial activity against non-gentamicin-resistant Klebsiella pneumoniae clinical isolate after 18 hrs by agar dilution method; assay type: functional
# Haemophilus influenzae = experiment: Antibacterial activity against non-gentamicin-resistant Haemophilus influenzae clinical isolate after 18 hrs by agar dilution method; assay type: functional
# Klebsiella aerogenes [10] = experiment: Antibacterial activity against non-gentamicin-resistant Enterobacter aerogenes clinical isolate assessed as susceptible isolates after 18 hrs by agar dilution method; assay type: functional
# Proteus mirabilis [11] = experiment: Antibacterial activity against gentamicin-resistant Proteus mirabilis clinical isolate after 18 hrs by agar dilution method; assay type: functional
# Pseudomonas sp. [12] = experiment: Antibacterial activity against gentamicin-resistant Pseudomonas spp. clinical isolate assessed as susceptible isolates after 18 hrs by agar dilution method; assay type: functional
# Pseudomonas aeruginosa [13] = experiment: Antibacterial activity against gentamicin-resistant Pseudomonas aeruginosa clinical isolate after 18 hrs by agar dilution method; assay type: functional
# Citrobacter freundii [14] = experiment: Antibacterial activity against non-gentamicin-resistant Citrobacter freundii clinical isolate after 18 hrs by agar dilution method; assay type: functional
# [15] = system: Staphylococcus epidermidis; experiment: Antibacterial activity against non-gentamicin-resistant Staphylococcus epidermidis clinical isolate after 18 hrs by agar dilution method; assay type: functional
# Escherichia coli = experiment: Antibacterial activity against gentamicin-resistant Escherichia coli clinical isolate assessed as susceptible isolates after 18 hrs by agar dilution method; assay type: functional
# [16] = system: Haemophilus parainfluenzae; experiment: Antibacterial activity against non-gentamicin-resistant Haemophilus parainfluenzae clinical isolate after 18 hrs by agar dilution method; assay type: functional
# Proteus mirabilis [17] = experiment: Antibacterial activity against gentamicin-resistant Proteus mirabilis clinical isolate assessed as susceptible isolates after 18 hrs by agar dilution method; assay type: functional
# [18] = system: Staphylococcus epidermidis; experiment: Antibacterial activity against gentamicin-resistant Staphylococcus epidermidis clinical isolate after 18 hrs by agar dilution method; assay type: functional
# Staphylococcus aureus [19] = experiment: Antibacterial activity against non-gentamicin-resistant Staphylococcus aureus clinical isolate assessed as susceptible isolates after 18 hrs by agar dilution method; assay type: functional
# Klebsiella pneumoniae [20] = experiment: Antibacterial activity against gentamicin-resistant Klebsiella pneumoniae clinical isolate assessed as susceptible isolates after 18 hrs by agar dilution method; assay type: functional
# Morganella morganii [21] = experiment: Antibacterial activity against non-gentamicin-resistant Morganella morganii clinical isolate after 18 hrs by agar dilution method; assay type: functional
# [22] = system: Staphylococcus epidermidis; experiment: Antibacterial activity against gentamicin-resistant Staphylococcus epidermidis clinical isolate assessed as susceptible isolates after 18 hrs by agar dilution method; assay type: functional
# Citrobacter koseri = experiment: Antibacterial activity against non-gentamicin-resistant Citrobacter diversus clinical isolate after 18 hrs by agar dilution method; assay type: functional
# Serratia marcescens [23] = experiment: Antibacterial activity against gentamicin-resistant Serratia marcescens clinical isolate after 18 hrs by agar dilution method; assay type: functional
# Enterobacter cloacae [24] = experiment: Antibacterial activity against gentamicin-resistant Enterobacter cloacae clinical isolate assessed as susceptible isolates after 18 hrs by agar dilution method; assay type: functional
# Enterobacter cloacae [25] = experiment: Antibacterial activity against non-gentamicin-resistant Enterobacter cloacae clinical isolate assessed as susceptible isolates after 18 hrs by agar dilution method; assay type: functional
# Proteus mirabilis [26] = experiment: Antibacterial activity against non-gentamicin-resistant Proteus mirabilis clinical isolate assessed as susceptible isolates after 18 hrs by agar dilution method; assay type: functional
# Morganella morganii [27] = experiment: Antibacterial activity against gentamicin-resistant Morganella morganii clinical isolate assessed as susceptible isolates after 18 hrs by agar dilution method; assay type: functional
# Staphylococcus aureus [28] = experiment: Antibacterial activity against non-gentamicin-resistant Staphylococcus aureus clinical isolate after 18 hrs by agar dilution method; assay type: functional
# Providencia rettgeri [29] = experiment: Antibacterial activity against non-gentamicin-resistant Proteus rettgeri clinical isolate assessed as susceptible isolates after 18 hrs by agar dilution method; assay type: functional
# Pseudomonas sp. [30] = experiment: Antibacterial activity against non-gentamicin-resistant Pseudomonas spp. clinical isolate after 18 hrs by agar dilution method; assay type: functional
# Staphylococcus aureus [31] = experiment: Antibacterial activity against gentamicin-resistant Staphylococcus aureus clinical isolate assessed as susceptible isolates after 18 hrs by agar dilution method; assay type: functional
# Staphylococcus aureus [32] = experiment: Antibacterial activity against gentamicin-resistant Staphylococcus aureus clinical isolate after 18 hrs by agar dilution method; assay type: functional
# Klebsiella pneumoniae [33] = experiment: Antibacterial activity against gentamicin-resistant Klebsiella pneumoniae clinical isolate after 18 hrs by agar dilution method; assay type: functional
# Citrobacter freundii [34] = experiment: Antibacterial activity against non-gentamicin-resistant Citrobacter freundii clinical isolate assessed as susceptible isolates after 18 hrs by agar dilution method; assay type: functional
# Citrobacter freundii [35] = experiment: Antibacterial activity against gentamicin-resistant Citrobacter freundii clinical isolate after 18 hrs by agar dilution method; assay type: functional
# Morganella morganii [36] = experiment: Antibacterial activity against non-gentamicin-resistant Morganella morganii clinical isolate assessed as susceptible isolates after 18 hrs by agar dilution method; assay type: functional
# Serratia marcescens [37] = experiment: Antibacterial activity against non-gentamicin-resistant Serratia marcescens clinical isolate assessed as susceptible isolates after 18 hrs by agar dilution method; assay type: functional
# Enterobacter cloacae [38] = experiment: Antibacterial activity against non-gentamicin-resistant Enterobacter cloacae clinical isolate after 18 hrs by agar dilution method; assay type: functional
# Pseudomonas aeruginosa [39] = experiment: Antibacterial activity against gentamicin-resistant Pseudomonas aeruginosa clinical isolate assessed as susceptible isolates after 18 hrs by agar dilution method; assay type: functional
# Morganella morganii [40] = experiment: Antibacterial activity against gentamicin-resistant Morganella morganii clinical isolate after 18 hrs by agar dilution method; assay type: functional
compound,measurement,setting,value
NCC[C@H](O)C(=O)N[C@@H]1C[C@H](N)[C@@H](O[C@H]2O[C@H](CN)[C@@H](O)[C@H](O)[C@H]2O)[C@H](O)[C@H]1O[C@H]1O[C@H](CO)[C@@H](O)[C@H](N)[C@H]1O [AMIKACIN],MIC50,[1],0.5 mg/L
same,MIC90,[1],2 mg/L
same,Activity,[2],inactive
same,Activity,Serratia marcescens [3],30%
same,Activity,Enterococcus faecalis,inactive
same,MIC50,Pseudomonas aeruginosa [4],4 mg/L
same,MIC90,Pseudomonas aeruginosa [4],16 mg/L
same,MIC50,Providencia rettgeri [5],2 mg/L
same,MIC90,Providencia rettgeri [5],32 mg/L
same,Activity,Klebsiella pneumoniae [6],100%
same,MIC50,Enterobacter cloacae [7],16 mg/L
same,MIC90,Enterobacter cloacae [7],32 mg/L
same,MIC50,Klebsiella aerogenes [8],16 mg/L
same,MIC90,Klebsiella aerogenes [8],64 mg/L
same,MIC50,Klebsiella pneumoniae [9],1 mg/L
same,MIC90,Klebsiella pneumoniae [9],1 mg/L
same,MIC50,Haemophilus influenzae,8 mg/L
same,MIC90,Haemophilus influenzae,16 mg/L
same,Activity,Klebsiella aerogenes [10],100%
same,MIC50,Proteus mirabilis [11],4 mg/L
same,MIC90,Proteus mirabilis [11],> 128 mg/L
same,Activity,Pseudomonas sp. [12],7.7%
same,MIC50,Pseudomonas aeruginosa [13],8 mg/L
same,MIC90,Pseudomonas aeruginosa [13],32 mg/L
same,MIC50,Citrobacter freundii [14],2 mg/L
same,MIC90,Citrobacter freundii [14],4 mg/L
same,MIC50,[15],0.5 mg/L
same,MIC90,[15],2 mg/L
same,Activity,Escherichia coli,93%
same,MIC50,[16],4 mg/L
same,MIC90,[16],8 mg/L
same,Activity,Proteus mirabilis [17],63.6%
same,MIC50,[18],4 mg/L
same,MIC90,[18],64 mg/L
same,Activity,Staphylococcus aureus [19],100%
same,Activity,Klebsiella pneumoniae [20],82.1%
same,MIC50,Morganella morganii [21],1 mg/L
same,MIC90,Morganella morganii [21],2 mg/L
same,Activity,[22],73.1%
same,MIC50,Citrobacter koseri,1 mg/L
same,MIC90,Citrobacter koseri,2 mg/L
same,MIC50,Serratia marcescens [23],> 128 mg/L
same,MIC90,Serratia marcescens [23],> 128 mg/L
same,Activity,Enterobacter cloacae [24],63.2%
same,Activity,Enterobacter cloacae [25],96.4%
same,Activity,Proteus mirabilis [26],100%
same,Activity,Morganella morganii [27],83.3%
same,MIC50,Staphylococcus aureus [28],1 mg/L
same,MIC90,Staphylococcus aureus [28],2 mg/L
same,Activity,Providencia rettgeri [29],84.6%
same,MIC50,Pseudomonas sp. [30],4 mg/L
same,MIC90,Pseudomonas sp. [30],16 mg/L
same,Activity,Staphylococcus aureus [31],80.6%
same,MIC50,Staphylococcus aureus [32],8 mg/L
same,MIC90,Staphylococcus aureus [32],128 mg/L
same,MIC50,Klebsiella pneumoniae [33],1 mg/L
same,MIC90,Klebsiella pneumoniae [33],> 128 mg/L
same,Activity,Citrobacter freundii [34],100%
same,MIC50,Citrobacter freundii [35],2 mg/L
same,MIC90,Citrobacter freundii [35],32 mg/L
same,Activity,Morganella morganii [36],96%
same,Activity,Serratia marcescens [37],96.3%
same,MIC50,Enterobacter cloacae [38],2 mg/L
same,MIC90,Enterobacter cloacae [38],4 mg/L
same,Activity,Pseudomonas aeruginosa [39],85.3%
same,MIC50,Morganella morganii [40],1 mg/L
same,MIC90,Morganella morganii [40],4 mg/L
GENTAMICIN,MIC50,[1],0.25 mg/L
same,MIC90,[1],2 mg/L
same,Activity,[2],inactive
same,Activity,Serratia marcescens [3],0%
same,Activity,Enterococcus faecalis,inactive
same,MIC50,Pseudomonas aeruginosa [4],4 mg/L
same,MIC90,Pseudomonas aeruginosa [4],8 mg/L
same,MIC50,Providencia rettgeri [5],4 mg/L
same,MIC90,Providencia rettgeri [5],8 mg/L
same,Activity,Klebsiella pneumoniae [6],100%
same,MIC50,Enterobacter cloacae [7],> 128 mg/L
same,MIC90,Enterobacter cloacae [7],> 128 mg/L
same,MIC50,Klebsiella aerogenes [8],> 128 mg/L
same,MIC90,Klebsiella aerogenes [8],> 128 mg/L
same,MIC50,Klebsiella pneumoniae [9],0.25 mg/L
same,MIC90,Klebsiella pneumoniae [9],0.5 mg/L
same,MIC50,Haemophilus influenzae,2 mg/L
same,MIC90,Haemophilus influenzae,2 mg/L
same,Activity,Klebsiella aerogenes [10],98.1%
same,MIC50,Proteus mirabilis [11],128 mg/L
same,MIC90,Proteus mirabilis [11],> 128 mg/L
same,Activity,Pseudomonas sp. [12],0%
same,MIC50,Pseudomonas aeruginosa [13],> 128 mg/L
same,MIC90,Pseudomonas aeruginosa [13],> 128 mg/L
same,MIC50,Citrobacter freundii [14],0.25 mg/L
same,MIC90,Citrobacter freundii [14],1 mg/L
same,MIC50,[15],0.06 mg/L
same,MIC90,[15],4 mg/L
same,Activity,Escherichia coli,0%
same,MIC50,[16],2 mg/L
same,MIC90,[16],4 mg/L
same,Activity,Proteus mirabilis [17],0%
same,MIC50,[18],16 mg/L
same,MIC90,[18],> 128 mg/L
same,Activity,Staphylococcus aureus [19],85.7%
same,Activity,Klebsiella pneumoniae [20],0%
same,MIC90,Morganella morganii [21],8 mg/L
same,Activity,[22],0%
same,MIC50,Citrobacter koseri,0.25 mg/L
same,MIC90,Citrobacter koseri,0.5 mg/L
same,MIC50,Serratia marcescens [23],> 128 mg/L
same,MIC90,Serratia marcescens [23],> 128 mg/L
same,Activity,Enterobacter cloacae [24],0%
same,Activity,Enterobacter cloacae [25],98.2%
same,Activity,Proteus mirabilis [26],96.8%
same,Activity,Morganella morganii [27],0%
same,MIC50,Staphylococcus aureus [28],0.125 mg/L
same,MIC90,Staphylococcus aureus [28],8 mg/L
same,Activity,Providencia rettgeri [29],84.6%
same,MIC50,Pseudomonas sp. [30],2 mg/L
same,MIC90,Pseudomonas sp. [30],8 mg/L
same,Activity,Staphylococcus aureus [31],0%
same,MIC50,Staphylococcus aureus [32],32 mg/L
same,MIC90,Staphylococcus aureus [32],128 mg/L
same,MIC50,Klebsiella pneumoniae [33],128 mg/L
same,MIC90,Klebsiella pneumoniae [33],> 128 mg/L
same,Activity,Citrobacter freundii [34],100%
same,MIC50,Citrobacter freundii [35],64 mg/L
same,MIC90,Citrobacter freundii [35],128 mg/L
same,Activity,Morganella morganii [36],76%
same,Activity,Serratia marcescens [37],100%
same,MIC50,Enterobacter cloacae [38],0.25 mg/L
same,MIC90,Enterobacter cloacae [38],0.5 mg/L
same,Activity,Pseudomonas aeruginosa [39],0%
same,MIC50,Morganella morganii [40],128 mg/L
same,MIC90,Morganella morganii [40],> 128 mg/L
